According to US20120283269A1, “Method and Compositions for Suppression of Aging” (HEALTH RESEARCH INC., priority 2009, published 2012):

Assays:
mTOR pathway [1] = assay: Immunoblot for p53, p-S6, p-S6K in WI-38-tert fibroblasts; assay type: cell-based, human
Description: FIG. 4. […] HT-p21-a cells were treated with IPTG and infected with Ad-p53. After 3 days, cells were photographed (original magnification ×200): Upper panel. Under blue light to visualize cells expressing p53 (green cells). Lower panel. Under visible light to visualize all cells. Red arrows indicate cells lacking p53 expression. All of these cells show large, flat cell morphology. Green arrows indicate cells expressing p53. b-d. […] After 1 day, cells were lysed and immunoblot was performed as described in Methods for Example 1. c. […] Cells were then stained for beta-Gal activity and microphotographed. Scale bar—50 μm.d. […] Cells were then trypsinized and counted. […] Results are shown as percent of control.
FIG. 12. […] Immunoblot for p53, p-S6, p-S6K, S6 and actin was performed as described in Methods for Example 1.
Immunoblot analysis. Proteins were separated on 4-15% gradient Tris-HCl gels (Bio-Rad). The following antibodies were used: mouse anti-actin from Santa Cruz Biotechnology, rabbit anti-phospho-S6 (Ser240/244) and (Ser235/236), mouse anti-S6, mouse anti-phospho-p70 S6 kinase (Thr389), mouse anti-p21 and anti-p53, rabbit anti-phospho-4E-BP1 (Thr37/46) from Cell Signaling; mouse anti-4E-BP1 from Invitrogen, mouse anti-p53 (Ab-6) from Calbiochem.

mTOR pathway [2] = assay: Immunoblot for mTOR pathway (p-S6, p-4E-BP1, cyclin D1) in HT-p21 cells; assay type: cell-based, human
Description: FIG. 3. […] Immunoblot. […] Immunoblot. […] Immunoblot was performed as described in Methods. c. […] After 3 days, cells were washed and incubated in fresh medium w/o drugs for an additional 7 days. […] On days 2, 3, 4, and 5 cells were lysed and protein content per well was measured.
(§1) Cell lines and reagents. […] WI-38-Tert, WI-38 are fibroblasts immortalized by telomerase. […] Cells were grown in high glucose DMEM with 10% FC2 serum. WI-38-tert cells were grown in low glucose DMEM with 10% FCS. Rapamycin was obtained from LC Laboratories (Woburn, Mass.). IPTG (final concentration of 50 μg/ml) and FC2 were obtained from Sigma-Aldrich (St. Louis, Mo.).

HT-p21-9 cells [3] = assay: Colony formation / proliferative potential after drug removal, HT-p21-9 cells; assay type: cell-based, human
Description: FIG. 1. Nutlin-3a converted senescence into quiescence. a. […] Cells were stained for beta-Gal and photographed (original magnification ×400). Bar scale—50 μm. b. […] Then cells were cultured in fresh medium until colonies become visible. Dishes were stained with crystal violet and photographed on day 4 (control) or on day 9 (IPTG- and nutlin-3a-treated).c. […] Before wash. Live HT-p21-9 cells (expressing GFP for better visualization of live cells) were photographed (original magnification ×100) under blue light. 3 d wash. Three days after drug removal. 9 d wash. Nine days after drug removal, cells were stained with crystal violet and photographed. d. Nutlin-3a dose response. […] After 3 days, the plates were washed and cells were incubated for an additional 9 days in fresh medium, stained with crystal violet and photographed. e. Colonies per dish. […] After 3 days, the plates were washed and cells were incubated for an additional 9 days in fresh medium. Colonies were counted and results are shown as percent of control (IPTG alone). f. Cells per dish. As in panel e. Cells were trypsinized and counted. Results are shown as percent of control (IPTG alone).
FIG. 3. […] Immunoblot. […] Immunoblot was performed as described in the methods for Example 1 below. b. Immunoblot. […] Immunoblot was performed as described in Methods. c. […] After 3 days, cells were washed and incubated in fresh medium w/o drugs for an additional 7 days. Cells were counted and are shown as percent of IPTG alone. d. […] Cells were treated with either IPTG alone (black bars) or IPTG plus rapamycin (white bars) or plus nutlin-3a (grey bars). On days 2, 3, 4, and 5 cells were lysed and protein content per well was measured. […] Cells were labeled with [^35S]methionine/cysteine as described in Methods for Example 1.
FIG. 6. […] Nine days after drug removal. a. Cell number per dish. Cells per dish were counted. b. Cell number per a colony. Number of cells per colony was calculated. A number of cells per colony was 200-250 (approximately equals to 8 divisions) by day 9.
(§2) Cell lines and reagents. HT-p21-9 and HT-p21-a cells are derivatives of HT1080 human fibrosarcoma cells, where p21 expression can be turned on or off using isopropyl-thio-galactosidase (IPTG) (7, 16, 28, 29, 36). […] HT-p16 cells are derivatives of HT1080 cells in which p16 expression can be turned on or off using IPTG (16, 36). WI-38-Tert, WI-38 are fibroblasts immortalized by telomerase. HT-p21-GSE56 cells: p53 inhibiting peptide GSE56 (18) was introduced into HT1080 p21-9 cells via a retroviral vector LXSE (37). Cells were grown in high glucose DMEM with 10% FC2 serum. WI-38-tert cells were grown in low glucose DMEM with 10% FCS. Rapamycin was obtained from LC Laboratories (Woburn, Mass.). IPTG (final concentration of 50 μg/ml) and FC2 were obtained from Sigma-Aldrich (St. Louis, Mo.).
Colony formation assay. Plates were fixed and stained with 1.0% methylene blue or with crystal violet (13).

[4] = system: HT-p21-a cells, HT-p16 cells; assay: Preservation of proliferative potential in IPTG-treated HT-p21-a and HT-p16 cells, nutlin-3a versus nutlin-3b; assay type: cell-based, human; settings: IPTG-regulated p16- and p21-expressing cells
Excerpt: FIG. 7. […] Then medium was changed and cells were counted after 8 days. b. […] Then medium was changed and cells were counted after 5 days.
as §2

HT-p21-GSE56 cells = assay: Proliferation, senescence and proliferative potential of HT-p21-GSE56 cells (p53 function blocked); assay type: cell-based, human; settings: 3 days, washed, fresh medium
Description: as §1

HT-p21-9 cells [5] = settings: HT-p21-9 cells; Huang et al. 2009; cited from earlier work
[6] = 200 μM H2O2 30 min, then 10 μM nutlin-3a, 1 day
[7] = IPTG plus 10 μM nutlin-3a, 24 hr

Question: Which “S6 phosphorylation in H2O2-treated WI-38-tert cells” value (mTOR pathway [1]; [6]) does the source give for `COc1ccc(C2=N[C@@H](c3ccc(Cl)cc3)[C@@H](c3ccc(Cl)cc3)N2C(=O)N2CCNC(=O)C2)c(OC(C)C)c1` [nutlin-3a] here?
Answer: inhibited S6 phosphorylation

Question: What about the “p53 level in H2O2-treated WI-38-tert cells” value (mTOR pathway [1]; [6]) of the same molecule?
Answer: induced p53

Question: And the “S6K and S6 phosphorylation” value (mTOR pathway [1]; concentrations that induce p53, 24 hr)?
Answer: inhibited S6K and S6 phosphorylation

Question: What about the S6 phosphorylation (mTOR pathway [2]; [7]) of the same molecule?
Answer: inhibited S6 phosphorylation

Question: And the “phosphorylation of 4E-BP1” value (mTOR pathway [2]; [7])?
Answer: partially inhibited

Question: What about the “cyclin D1 levels” value (mTOR pathway [2]; IPTG plus nutlin-3a) of the same molecule?
Answer: normalized elevated levels of cyclin D1

Question: What about the mTOR pathway (mTOR pathway [2]; presence or absence of IPTG, 18 hr) of the same molecule?
Answer: inhibited the mTOR pathway both in the presence and absence of IPTG

Question: And the “proliferative potential and clonogenicity of IPTG-treated cells” value (HT-p21-9 cells [3]; IPTG plus nutlin-3a 3 days, washed, fresh medium)?
Answer: retained the proliferative potential and clonogenicity

Question: What about the “number of cells per colony” value (HT-p21-9 cells [3]; IPTG+nutlin-3a 3 days, day 9 after drug removal) of the same molecule?
Answer: 200-250

Question: What about the “potency in suppression of senescence (preservation of proliferative potential)” value (HT-p21-9 cells [3]; IPTG-treated HT-p21-9 cells) of the same molecule?
Answer: equally potent

Question: What about the “reversibility of arrest (colony formation upon removal)” value (HT-p21-9 cells [3]; nutlin-3a alone 3 days, then washed) of the same molecule?
Answer: reversible arrest

Question: And the “further suppression of senescence by nutlin-3a in the presence of rapamycin” value (HT-p21-9 cells [3]; rapamycin (500 nM) at doses that completely inhibit mTOR)?
Answer: could not further suppress senescence

Question: What about the “conversion of senescence into quiescence (preservation of proliferative potential)” value [4] of the same molecule?
Answer: preservation of proliferative potential

Question: What about the “colony formation and proliferative potential (PP) in IPTG-treated HT-p21-GSE56 cells” value (HT-p21-GSE56 cells) of the same molecule?
Answer: did not preserve colony formation and proliferative potential (PP)

Question: And the “cell cycle arrest on induction of p53 by nutlin-3a” value (HT-p21-9 cells [5])?
Answer: reversible cell cycle arrest (quiescence)
